For 4 molecules, turbidity results are on record in patent publication US20100040734A1, “Cacao Husk-Derived Water-Soluble, Dietary Fiber, Process For Its Production, Foods and Beverages Containing It And Methods For Their Preparation” (FUJI OIL COMPANY, LIMITED, priority 2000, published 2010).

Assay in all cases: microbiostatic property by turbidity in standard liquid medium
Format in all cases: cell-based
Common to all, as to conditions: 35° C.

One experiment relates to Escherichia coli. On the procedure: […] The turbidity was determined by measuring the absorbance at a wavelength of 610 nm (the spectrophotometer used was PTL-396S by JASCO Co., Ltd.), and the units for the turbidity were based on JIS1010.
The next experiment deals with Saccharomyces cerevisiae. From the text: (§1) For evaluation of the shelf-life extending property (microbiostatic property), there was used a standard liquid medium (pH 7.2) containing the cacao husk-derived water-soluble dietary fiber of the invention at 0%, 0.5% or 1.0% with suitable amounts of shelf stability increasing substances, and using Escherichia coli, Aspergilius oryzae and Saccharomyces cerevisiae as the target strains. […] As the turbidity of the medium increases with growth of the cells, a test substance with a microbiostatic property will inhibit the cell growth and result in less turbidity. The turbidity was determined by measuring the absorbance at a wavelength of 610 nm (the spectrophotometer used was PTL-396S by JASCO Co., Ltd.), and the units for the turbidity were based on JIS1010.

A further experiment deals with Aspergillus oryzae.
From the text: as §1

Turning to `O=C1O[C@H]([C@@H](O)CO)C([O-])=C1O.[Na+]` [Na ascorbate], the turbidity is on record as 115 unit with Escherichia coli (added at 0.1%, days stored 1); 402 unit with Escherichia coli (added at 0.1%, days stored 2); 18 unit in the experiment on Escherichia coli (added at 0.5%, days stored 1); 211 unit with Escherichia coli (added at 0.5%, days stored 2); 315 unit in the experiment with Escherichia coli (added at 0.5%, days stored 3); 452 unit in the experiment on Escherichia coli (added at 0.5%, days stored 4). Besides, the turbidity in the experiment on Saccharomyces cerevisiae (added at 0.1%, days stored 1) came out at 122 unit; with Saccharomyces cerevisiae (added at 0.1%, days stored 2), 391 unit; in the experiment with Saccharomyces cerevisiae (added at 0.5%, days stored 1), 76 unit; in the experiment with Saccharomyces cerevisiae (added at 0.5%, days stored 2), 251 unit; in the experiment on Saccharomyces cerevisiae (added at 0.5%, days stored 3), 433 unit; in the experiment with Aspergillus oryzae (added at 0.1%, days stored 1), 107 unit. The turbidity in the experiment on Aspergillus oryzae (added at 0.1%, days stored 2) came out at 370 unit; in the experiment with Aspergillus oryzae (added at 0.5%, days stored 1) it was 58 unit; with Aspergillus oryzae (added at 0.5%, days stored 2) it was 178 unit; in the experiment on Aspergillus oryzae (added at 0.5%, days stored 3) it was 422 unit.
Glycerin fatty acid ester: the turbidity in the experiment with Escherichia coli (added at 0.01%, days stored 1) was 113 unit; in the experiment on Escherichia coli (added at 0.01%, days stored 2), 415 unit; in the experiment with Escherichia coli (added at 0.05%, days stored 1), 47 unit; in the experiment on Escherichia coli (added at 0.05%, days stored 2), 196 unit; in the experiment on Escherichia coli (added at 0.05%, days stored 3), 305 unit; in the experiment with Escherichia coli (added at 0.05%, days stored 4), 481 unit. Also, the turbidity came to 79 unit in the experiment on Saccharomyces cerevisiae (added at 0.01%, days stored 1); 281 unit with Saccharomyces cerevisiae (added at 0.01%, days stored 2); 485 unit in the experiment with Saccharomyces cerevisiae (added at 0.01%, days stored 3); 38 unit with Saccharomyces cerevisiae (added at 0.05%, days stored 1); 107 unit with Saccharomyces cerevisiae (added at 0.05%, days stored 2); 375 unit in the experiment with Saccharomyces cerevisiae (added at 0.05%, days stored 3). In addition, the turbidity was determined as 86 unit in the experiment on Aspergillus oryzae (added at 0.01%, days stored 1); 417 unit with Aspergillus oryzae (added at 0.01%, days stored 2); 53 unit in the experiment with Aspergillus oryzae (added at 0.05%, days stored 1); 199 unit in the experiment with Aspergillus oryzae (added at 0.05%, days stored 2); 418 unit with Aspergillus oryzae (added at 0.05%, days stored 3).
For the molecule `CCO` [Ethanol], the turbidity in the experiment on Escherichia coli (added at 0.05%, days stored 1) is on record as 104 unit; in the experiment with Escherichia coli (added at 0.05%, days stored 2) it was 441 unit; in the experiment on Escherichia coli (added at 0.1%, days stored 1) it was 112 unit; in the experiment on Escherichia coli (added at 0.1%, days stored 2) it was 382 unit; in the experiment on Escherichia coli (added at 0.1%, days stored 3), 455 unit; with Saccharomyces cerevisiae (added at 0.05%, days stored 1), 59 unit. For the same molecule, the turbidity with Saccharomyces cerevisiae (added at 0.05%, days stored 2) is given as 251 unit; in the experiment on Saccharomyces cerevisiae (added at 0.05%, days stored 3), 487 unit; with Saccharomyces cerevisiae (added at 0.1%, days stored 1) it was 36 unit; in the experiment on Saccharomyces cerevisiae (added at 0.1%, days stored 2), 182 unit; with Saccharomyces cerevisiae (added at 0.1%, days stored 3), 411 unit; in the experiment with Aspergillus oryzae (added at 0.05%, days stored 1), 17 unit. Also, the turbidity came to 128 unit with Aspergillus oryzae (added at 0.05%, days stored 2); 328 unit in the experiment on Aspergillus oryzae (added at 0.05%, days stored 3); 10 unit in the experiment with Aspergillus oryzae (added at 0.1%, days stored 1); 112 unit in the experiment with Aspergillus oryzae (added at 0.1%, days stored 2); 251 unit in the experiment with Aspergillus oryzae (added at 0.1%, days stored 3); 475 unit in the experiment with Aspergillus oryzae (added at 0.1%, days stored 4).
Consider `[Cl-].[Na+]` [Salt], for which the turbidity in the experiment with Escherichia coli (added at 1.0%, days stored 1) worked out at 141 unit; in the experiment on Escherichia coli (added at 1.0%, days stored 2), 524 unit; in the experiment on Escherichia coli (added at 2.0%, days stored 1), 31 unit; in the experiment on Escherichia coli (added at 2.0%, days stored 2) it was 353 unit; with Saccharomyces cerevisiae (added at 1.0%, days stored 1) it was 112 unit; in the experiment on Saccharomyces cerevisiae (added at 1.0%, days stored 2), 425 unit. Also, the turbidity was found to be 24 unit in the experiment on Saccharomyces cerevisiae (added at 2.0%, days stored 1); 377 unit in the experiment with Saccharomyces cerevisiae (added at 2.0%, days stored 2); 99 unit in the experiment on Aspergillus oryzae (added at 1.0%, days stored 1); 487 unit with Aspergillus oryzae (added at 1.0%, days stored 2); 68 unit in the experiment on Aspergillus oryzae (added at 2.0%, days stored 1); 272 unit with Aspergillus oryzae (added at 2.0%, days stored 2). The same molecule displayed a turbidity in the experiment with Aspergillus oryzae (added at 2.0%, days stored 3) of 429 unit.
